Test results reported in patent US8901118B2, “Compounds and methods for kinase modulation, and indications therefor” (Plexxikon Inc., priority 2010, dated 2014).

Tested on: MV-4-11 cells
Assay: MV-4-11 (leukemia) cell proliferation assay (ATPlite)
Assay type: cell-based
Settings: Homo sapiens, MV4-11, read-out: Inhibition of Cell Proliferation IC50, MV-4-11
Procedure: Compounds are assessed in a variety of cell based assays. For example BaF3 cells engineered with any of BCR-FMS, BCR-KIT, BCR-FLT3, BCR-NTRK1, BCR-NTRK2, and BCR-NTRK3, are used in cell proliferation assays to assess inhibitory activity of Fms, Kit, Flt-3, TrkA, TrkB, and TrkC, respectively. An MV-4-11 (leukemia) cell proliferation assay is used to assess inhibitory activity in Flt-3, and SKNSH (human neuroblastoma) cell proliferation assay is used to assess efficacy of Fms/Trk inhibitors. Additional cells may be assayed similarly to assess the efficacy of Fms/Trk inhibitors, such as MiaPaCa (human pancreatic cancer) and Capan-1 (human pancreatic carcinoma) cells. Reagent and assay conditions are as follows: • BaF3 cells: • Maintained in RPMI containing 10% FBS, 1% PenStrep, 1% NEAA, and 1% L-Glutamine, supplemented with 1 mg/mL G418 and 5% WEHI-CM (or recombinant murine IL-3). • Confluent cells are split 1:50 to 1:100 every 3-4 days. • MV-4-11 cells: • Maintained in Iscove's Modified Dulbecco's Medium containing 10% FBS. • Confluent cells are split 1:4 every 3-4 days. • SKNSH cells: RPMI containing 10% FBS. On day 1, cells are counted, then centrifuged in a conical tube for 5 minutes at 1000 rpm. The supernatant is removed and cells are re-suspended as follows: • BaF3: resuspend in growth media +1 mg/mL G418 (without WEHFIL-3) to 2×10^5 cells/mL. • MV-4-11: resuspend in growth media to 5×10^5 cells/mL. • SKNSH: resuspend in growth media to 2×10^4 cells/mL. The cells are plated (50 μL, 150 μL for SKNSH cells) in each well of a 96-well dish (Corning 3610) and incubated at 37° C. in 5% CO2 overnight, cells plated to a final concentration of cells as follows: • BaF3: 10,000 cells per well. • MV-4-11: 25,000 cells per well. • SKNSH: 3,000 cells per well. On day 2, compound at a maximum concentration of 5 mM is serially diluted 1:3 for a total of 8 point titration with DMSO as a control. A 1 μL aliquot of each dilution point is added to 249 μL growth media and 50 μL is added to a well containing cells, providing 10 μM compound for the maximum concentration point. The cells are incubated for 3 days at 37° C. in 5% CO2. For SKNSH cells, a 0.75 μL aliquot of appropriate dilution in DMSO is added to 150 μL of cells. On day 5, ATPlite 1 step Luminescence Assay System (Perkin Elmer #6016739) is brought to room temperature along with the cell cultures. ATPlite is added to each well as follows: • BaF3: 25 μL per well. • MV-4-11: 40 μL per well. • SKNSH: 20 μL per well. The cells are incubated at room temperature for 10 minutes, then luminescence is read on Safire reader. The measured luminescence correlates directly with cell number, such that the reading as a function of compound concentration is used to determine the IC50 value.
It is understood that the results of these assays may vary as assay conditions are varied. Inhibition levels determined under the conditions described herein represent a relative activity for the compounds tested under the specific conditions employed. The cell based assays are likely to show variability due to the complexity of the system and the sensitivity thereof to any changes in the assay conditions. […] Results for compounds that are tested and show substantially no inhibition below the highest tested concentration are represented as “-” in the tables below. In some instances, the compounds were not tested in all of the assays, or assay results were not valid, as indicated by NA in the tables below.

Fc1nc(NC2CCC(F)(F)CC2)ccc1Cc1c[nH]c2ncc(Cl)cc12 [Compound P-3013, [5-(5-Chloro-1H-pyrrolo[2,3-b]pyridin-3-ylmethyl)-6-fluoro-pyridin-2-yl]-(4,4-difluoro-cyclohexyl)-amine]
IC50: < 10 µM
